# Experimental data as given in patent US10533010B2, “Substituted indole Mcl-1 inhibitors” (Vanderbilt University, priority 2014, dated 2020).
# Read-outs that look alike come from different tables or passages of the source.
# Biological target: recombinant Mcl-1 (residues 172-327) (Homo sapiens (Human), UniProt Q07820)
# Assay: Fluorescence polarization anisotropy competition assay (FITC-Bak or FITC-Bim BH3 peptide) with Mcl-1
# Format: binding
# Conditions: Table 2, FITC-Bak or FITC-Bim peptide competition, Ki converted from IC50, read-out: Ki for Inhibition of Mcl-1
# Sequence of recombinant Mcl-1 (residues 172-327) (Q07820 172-327): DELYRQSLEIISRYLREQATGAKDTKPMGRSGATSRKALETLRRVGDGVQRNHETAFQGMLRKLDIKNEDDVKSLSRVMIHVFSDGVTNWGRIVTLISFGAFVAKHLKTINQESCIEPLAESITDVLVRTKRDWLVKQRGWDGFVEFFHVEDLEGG
SMILES,Ki (Ki bins given in nM) [nM],Ki (Ki bins given in μM) [nM]
"Cc1cc(OCCCc2c3n(c4c(-c5c(C)nn(C)c5C)c(Cl)ccc24)CCCN(c2cccc(C(=O)O)c2C)C3=O)cc(C)c1Cl [I-96, 3-(8-chloro-11-(3-(4-chloro-3,5-dimethylphenoxy)propyl)-1-oxo-7-(1,3,5-trimethyl-1H-pyrazol-4-yl)-4,5-dihydro-1H-[1,4]diazepino[1,2-a]indol-2(3H)-yl)-2-methylbenzoic acid]",< 50,
"Cc1cc(OCCCc2c3n(c4c(-c5c(C)nn(C)c5C)c(Cl)ccc24)CCN(c2cncc(C(=O)O)c2)C3=O)cc(C)c1Cl [I-198, 5-(7-chloro-10-(3-(4-chloro-3,5-dimethylphenoxy)propyl)-1-oxo-6-(1,3,5-trimethyl-1H-pyrazol-4-yl)-3,4-dihydropyrazino[1,2-a]indol-2(1H)-yl)nicotinic acid]",< 50,
"Cc1cc(OCCCc2c3n(c4c(-c5c(C)nn(C)c5C)c(Cl)ccc24)C[C@H](C)N(Cc2ccc(C(=O)O)o2)C3=O)cc(C)c1Cl [I-138, (S)-5-((7-chloro-10-(3-(4-chloro-3,5-dimethylphenoxy)propyl)-3-methyl-1-oxo-6-(1,3,5-trimethyl-1H-pyrazol-4-yl)-3,4-dihydropyrazino[1,2-a]indol-2(1H)-yl)methyl)furan-2-carboxylic acid]",< 50,
"Cc1cc(OCCCc2c3n(c4c(-c5c(C)nn(C)c5C)c(Cl)ccc24)CCCN(c2nc(C(=O)O)cs2)C3=O)cc(C)c1Cl [I-359, 2-(8-chloro-11-(3-(4-chloro-3,5-dimethylphenoxy)propyl)-1-oxo-7-(1,3,5-trimethyl-1H-pyrazol-4-yl)-4,5-dihydro-1H-[1,4]diazepino[1,2-a]indol-2(3H)-yl)thiazole-4-carboxylic acid]",< 50,
"Cc1cc(OCCCc2c3n(c4c(-c5c(C)nn(C)c5C)c(Cl)ccc24)CCCN(Cc2cc(Br)cc(C(=O)O)c2)C3=O)cc(C)c1Cl [I-299, 3-bromo-5-((8-chloro-11-(3-(4-chloro-3,5-dimethylphenoxy)propyl)-1-oxo-7-(1,3,5-trimethyl-1H-pyrazol-4-yl)-4,5-dihydro-1H-[1,4]diazepino[1,2-a]indol-2(3H)-yl)methyl)benzoic acid]",< 50,
"Cc1cc(OCCCc2c3n(c4c(-c5c(C)nn(C)c5C)c(Cl)ccc24)C(C)CN(Cc2ccc(C(=O)O)o2)C3=O)cc(C)c1Cl (stereo not drawn) [I-128, 5-((7-chloro-10-(3-(4-chloro-3,5-dimethylphenoxy)propyl)-4-methyl-1-oxo-6-(1,3,5-trimethyl-1H-pyrazol-4-yl)-3,4-dihydropyrazino[1,2-a]indol-2(1H)-yl)methyl)furan-2-carboxylic acid]",< 50,
"Cc1cc(OCCCc2c(C(=O)N[C@H]3CCCC[C@H]3C(=O)O)[nH]c3c(-c4c(C)nn(C)c4C)cccc23)cc(C)c1Cl [I-316, (1R,2S)-2-(3-(3-(4-chloro-3,5-dimethylphenoxy)propyl)-7-(1,3,5-trimethyl-1H-pyrazol-4-yl)-1H-indole-2-carboxamido)cyclohexane-1-carboxylic acid]",< 50,
"Cc1cc(OCCCc2c3n(c4c(-c5c(C)nn(C)c5C)c(Cl)ccc24)CCCN(c2ncc(C(=O)O)s2)C3=O)cc(C)c1Cl [I-358, 2-(8-chloro-11-(3-(4-chloro-3,5-dimethylphenoxy)propyl)-1-oxo-7-(1,3,5-trimethyl-1H-pyrazol-4-yl)-4,5-dihydro-1H-[1,4]diazepino[1,2-a]indol-2(3H)-yl)thiazole-5-carboxylic acid]",< 50,
"Cc1cc(OCCCc2c(C(=O)NCCC(=O)O)[nH]c3c(-c4c(C)n[nH]c4C)cccc23)cc(C)c1Cl [I-23, 3-(3-(3-(4-chloro-3,5-dimethylphenoxy)propyl)-7-(3,5-dimethyl-1H-pyrazol-4-yl)-1H-indole-2-carboxamido)propanoic acid]",< 50,
"Cc1cc(OCCCc2c(C(=O)N3CCc4c(C(=O)O)cccc43)[nH]c3c(-c4c(C)nn(C)c4C)cccc23)cc(C)c1Cl [I-202, 1-(3-(3-(4-chloro-3,5-dimethylphenoxy)propyl)-7-(1,3,5-trimethyl-1H-pyrazol-4-yl)-1H-indole-2-carbonyl)indoline-4-carboxylic acid]",51 to 100,
"Cc1cc(OCCCc2c3n(c4c(-c5c(C)nn(C)c5C)c(Cl)ccc24)CCCN(c2cc(F)cc(C(=O)O)c2)C3=O)cc(C)c1Cl [I-223, 3-(8-chloro-11-(3-(4-chloro-3,5-dimethylphenoxy)propyl)-1-oxo-7-(1,3,5-trimethyl-1H-pyrazol-4-yl)-4,5-dihydro-1H-[1,4]diazepino[1,2-a]indol-2(3H)-yl)-5-fluorobenzoic acid]",< 50,
"Cc1cc(OCCCc2c3n(c4c(-c5c(C)nn(C)c5C)c(Cl)ccc24)CCCN(Cc2cc(COc4ccccc4C(F)(F)F)cc(C(=O)O)c2)C3=O)cc(C)c1Cl [I-312, 3-((8-chloro-11-(3-(4-chloro-3,5-dimethylphenoxy)propyl)-1-oxo-7-(1,3,5-trimethyl-1H-pyrazol-4-yl)-4,5-dihydro-1H-[1,4]diazepino[1,2-a]indol-2(3H)-yl)methyl)-5-((2-(trifluoromethyl)phenoxy)methyl)benzoic acid]",51 to 100,
"Cc1cc(OCCCc2c(C(=O)N3CCN(c4ccc(C(=O)O)cc4)CC3)[nH]c3cc(Cl)ccc23)cc(C)c1Cl [I-51, 4-(4-(6-chloro-3-(3-(4-chloro-3,5-dimethylphenoxy)propyl)-1H-indole-2-carbonyl)piperazin-1-yl)benzoic acid]",,1000 to 9990
"Cc1cc(C(=O)O)ccc1N1CCCn2c(c(CCCOc3cc(C)c(Cl)c(C)c3)c3ccc(Cl)c(-c4c(C)nn(C)c4C)c32)C1=O [I-97, 4-(8-chloro-11-(3-(4-chloro-3,5-dimethylphenoxy)propyl)-1-oxo-7-(1,3,5-trimethyl-1H-pyrazol-4-yl)-4,5-dihydro-1H-[1,4]diazepino[1,2-a]indol-2(3H)-yl)-3-methylbenzoic acid]",< 50,
"Cc1cc(OCCCc2c(C(=O)NCCS(=O)(=O)NC(=O)Cc3ccc(Br)cc3)[nH]c3ccccc23)cc(C)c1Cl [I-53, N-(2-(N-(2-(4-bromophenyl)acetyl)sulfamoyl)ethyl)-3-(3-(4-chloro-3,5-dimethylphenoxy)propyl)-1H-indole-2-carboxamide]",301 to 500,
"Cc1cc(OCCCc2c(C(=O)NC3CCN(C(=O)C(=O)O)CC3)[nH]c3c(-c4c(C)nn(C)c4C)cccc23)cc(C)c1Cl [I-319, 2-(4-(3-(3-(4-chloro-3,5-dimethylphenoxy)propyl)-7-(1,3,5-trimethyl-1H-pyrazol-4-yl)-1H-indole-2-carboxamido)piperidin-1-yl)-2-oxoacetic acid]",< 50,
"Cc1cc(OCCCc2c(C(=O)NCc3ccc(N4CCCC4)c(C(=O)O)c3)[nH]c3c(-c4c(C)nn(C)c4C)cccc23)cc(C)c1Cl [I-76, 5-((3-(3-(4-chloro-3,5-dimethylphenoxy)propyl)-7-(1,3,5-trimethyl-1H-pyrazol-4-yl)-1H-indole-2-carboxamido)methyl)-2-(pyrrolidin-1-yl)benzoic acid]",51 to 100,
"CCOC(=O)c1ccc(CNC(=O)c2[nH]c3c(-c4c(C)nn(C)c4C)cccc3c2CCCOc2cc(C)c(Cl)c(C)c2)o1 [I-266, ethyl 5-((3-(3-(4-chloro-3,5-dimethylphenoxy)propyl)-7-(1,3,5-trimethyl-1H-pyrazol-4-yl)-1H-indole-2-carboxamido)methyl)furan-2-carboxylate]",,10000 to 50000
